# Data: US20260166031A1, “Methods of Treating Lipedema and Lymphatic Disease of the Subcutaneous Tissue” (Celltaxis, LLC, priority 2023, published 2026)
# Entries after “also recorded” stand apart in the source; their conditions may differ. Like-named read-outs stand apart in the source and are kept apart here.
# Columns and labels:
# [1] = biological target: T1, LTA4H aminopeptidase activity (Homo sapiens, UniProt P09960)
# T1 sequence (P09960 1-611): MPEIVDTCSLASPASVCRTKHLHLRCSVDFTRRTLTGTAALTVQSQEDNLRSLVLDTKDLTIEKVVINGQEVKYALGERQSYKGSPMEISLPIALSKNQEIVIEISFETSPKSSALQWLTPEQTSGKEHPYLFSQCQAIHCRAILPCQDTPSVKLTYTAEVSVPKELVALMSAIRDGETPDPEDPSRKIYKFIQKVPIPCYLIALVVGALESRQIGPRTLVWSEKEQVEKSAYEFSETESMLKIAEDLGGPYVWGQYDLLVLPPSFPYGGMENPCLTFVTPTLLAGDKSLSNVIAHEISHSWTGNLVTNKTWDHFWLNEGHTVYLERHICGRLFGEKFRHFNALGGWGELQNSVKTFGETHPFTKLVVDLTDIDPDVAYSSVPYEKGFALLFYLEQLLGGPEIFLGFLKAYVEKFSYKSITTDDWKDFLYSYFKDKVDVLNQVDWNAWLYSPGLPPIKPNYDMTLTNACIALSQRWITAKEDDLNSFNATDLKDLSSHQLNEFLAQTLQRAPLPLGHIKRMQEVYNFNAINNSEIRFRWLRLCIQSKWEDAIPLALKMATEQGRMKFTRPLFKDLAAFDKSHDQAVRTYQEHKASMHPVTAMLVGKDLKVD
# [2] = biological target: T2, LTA4H epoxide hydrolase activity (Homo sapiens, UniProt P09960); conditions: Table 3; read-out: Epoxide Hydrolase IC50 ± SEM; cited from earlier work
# T2 sequence (P09960 1-611): T1 sequence (P09960 1-611)
# LTA4H = biological target: T3, LTA4H (Homo sapiens, UniProt P09960); conditions: cited from earlier work
# T3 sequence (P09960 1-611): T1 sequence (P09960 1-611)
# lymphedema patients [3] = assay: Expanded access program, LymVAS quality of life; type: in vivo, human; conditions: as early as 3 months, maintained at 6 months; 11 EAP patients
# Method: Quality of life indicators were also evaluated in the 11 EAP patients using LymVAS, a tool to interrogate lymphedema patient experience and is based on experience and practice from prior lymphedema trials. LymVAS uses a sliding visual analog scale, wherein patients move the slider along a line to indicate the degree of response to a question. LymVAS has two segments: 1.
# adult patients with CF = conditions: 48 weeks of treatment; Phase II adult CF patients; cited from earlier work
# lymphedema patients [4] = assay: Expanded access program, dermal ultrasound; type: in vivo, human
# LTB4 production = assay: Pharmacodynamic studies in humans, LTB4 production/inhibition; type: in vivo, human
# [5] = test system: upper limb lymphedema patient; assay: HEAL Phase 2 trial case report, dermal ultrasound of forearm; type: in vivo, human; conditions: Stage II lymphedema subject
# Description: We present the early ultrasonographic responses of a participant who has completed 3 months of a total 6-month exposure. The primary endpoint for this trial involves quantitative analysis of dermal ultrasound skin changes.
# These preliminary results lend great promise to the HEAL trial.
# [6] = test system: LTB4 production in human whole blood; assay: Human whole blood ex vivo LTB4 production; type: cell-based; conditions: human whole blood tested ex vivo; read-out: approximate IC50, LTB4 production
# Method: The hydrolase-homogeneous time resolved fluorescence assay is a two-step assay that measures the hydrolysis of LTA4 to LTB4 by analyzing the amount of LTB4 produced. The first step involves the enzymatic conversion of LTA4 to LTB4 and the second step involves the quantification of the LTB4 formed with a homogeneous time resolved fluorescence assay. […] In the whole blood assay, the inhibitor compounds are tested for their ability to inhibit LTB4 release upon stimulation with calcium ionophore and the LTB4 levels in supernatants are measured by ELISA.
# [7] = test system: sputum white blood cells and neutrophils of CF patients; assay: Sputum cell counts in CF patients
# [8] = test system: affected limb of lymphedema patients; assay: Expanded access program, limb volume; type: in vivo, human; conditions: 6 months; mean for 6 patients; p<0.03
# Description: At 6 months, a 6.7% reduction in limb volume was observed (mean for 6 patients; p<0.03).
# [9] = test system: affected (lymphedematous) limb of lymphedema patients; assay: Expanded access program, skin thickness of affected limb by caliper; type: in vivo, human; conditions: p<0.0001
# Method: Skin thickness was measured by caliper.
# At 6 months, a 43% reduction in skin thickness was observed (mean for 10 patients; p<0.0001).
# neutrophil swarming = assay: Neutrophil swarming in vitro in response to factors in human CF sputum; conditions: acebilustat 48 ng/mL, factors present in human CF sputum
# [10] = test system: affected limb of lymphedema patients; assay: Expanded access program, bioimpedance of affected limb; type: in vivo, human; conditions: 6 months vs baseline; p<0.01; higher bioimpedance = lower water content
# Description: Bioimpedance is a measure of water content, and a higher bioimpedance corresponds to a lower water content.
# FIGS. 5A, 5B and 5C are graphs presenting the same data as change in bioimpedance (as compared to baseline) over time.
# [11] = Table 2; read-out: Aminopeptidase IC50 ± SEM; cited from earlier work
# [12] = Table 3; read-out: Aminopeptidase IC50 ± SEM; cited from earlier work
# [13] = patient with right leg lymphedema, at 6 months
# [14] = 3 months of treatment vs baseline
# [15] = 3 months of treatment vs baseline, listed as Acebilustat
smiles,measurement,setting,value
CC(=O)Oc1ccc(/C=C/c2cc(OC(C)=O)cc(OC(C)=O)c2)cc1 [Cmpd 4],IC50,[1]; Table 1; read-out: Aminopeptidase IC50 ± SEM; cited from earlier work,> 100 µM
COc1cc(O)cc(CCc2ccc(O)cc2)c1 [Cmpd 6],IC50,[1]; [11],> 100 µM
CCOc1cc(O)cc(CCc2ccc(O)cc2)c1 [Cmpd 7],IC50,[1]; [11],> 100 µM
COc1cc(O)cc(CCc2cccc(O)c2)c1 [Cmpd 8],IC50,[1]; [11],> 100 µM
COc1cc(O)cc(CCc2ccccc2O)c1 [Cmpd 9],IC50,[1]; [11],> 100 µM
O=C(Cc1ccc(O)cc1)c1ccc(O)cc1O [Cmpd 10],IC50,[1]; [12],> 100 µM
O=c1c(-c2ccc(O)cc2)coc2cc(O)ccc12 [Cmpd 11],IC50,[1]; read-out: Aminopeptidase IC50 ± SEM; Table 3; cited from earlier work,> 100 µM
O=c1c(-c2ccc(O)cc2)coc2c(O)c(O)ccc12 [Cmpd 12],IC50,[2],7.3 ± 0.8 µM
O=c1c(-c2ccccc2)coc2cc(O)ccc12 [Cmpd 13],IC50,[1]; [12],> 100 µM
CC(C)C[C@H](NC(=O)[C@@H](O)[C@H](N)Cc1ccccc1)C(=O)O [Ubenimex],potency at inhibiting LTB4 generation versus PGP degradation (selectivity class),LTA4H,non-selective LTA4H inhibitor
"O=C(O)c1ccc(CN2C[C@@H]3C[C@H]2CN3Cc2ccc(Oc3ccc(-c4ncco4)cc3)cc2)cc1 [acebilustat, 4-{[(1S,4S)-5-({4-[4-oxazol-2-yl-phenoxy]phenyl}methyl)-2,5-diazabicyclo[2.2.1]heptan-2-yl]methyl}benzoic acid]",LymVAS Total Change Score,lymphedema patients [3],significant improvement
same,LymVAS quality of life Total Status Score,lymphedema patients [3],significant improvement
same,rate of pulmonary exacerbations,adult patients with CF,showed promise in reducing the rate of pulmonary exacerbations
same,risk of infection,adult patients with CF,no evidence of increased risk of infection
same,reduction in subcutaneous thickness,"lymphedema patients [4]; different patient (FIG. 7), after 6 months of treatment",15.2%
same,reduction of dermal thickness,lymphedema patients [4]; [13],3.7%
same,reduction of subdermal thickness,lymphedema patients [4]; [13],over 20.2%
same,reduction of total thickness,lymphedema patients [4]; [13],17.6%
same,inhibition at 50 mg,"LTB4 production; 50 mg dose, human pharmacodynamic studies",≥ 63%
same,inhibition at 100 mg,"LTB4 production; 100 mg dose, human pharmacodynamic studies",≥ 74%
same,inhibition at 150 mg,"LTB4 production; 150 mg dose, human pharmacodynamic studies",≥ 82%
same,LTB4 inhibition,"LTB4 production; 200 mg, human pharmacodynamic studies",at least 85%
same,EC50,"LTB4 production; Homo sapiens, pharmacodynamic studies in humans, read-out: estimated in vivo EC50, inhibition of LTB4 production",0.093 µg/mL
same,demarcation of dermo-epidermal junction and subcutaneous fascial bands,[5]; 3 months of treatment,enhanced demarcation
same,dermal echogenicity by ultrasound,[5]; [14],reduced echogenicity
same,dermal thickness by ultrasound,[5]; [14],reduced dermal thickness
same,subcutaneous tissue echogenicity,[5]; [14],decreased
same,dermal thickness by ultrasound,[5]; [15],reduced
same,subcutaneous tissue echogenicity,[5]; [15],reduced
same,IC50,[6],~0.0308 µg/mL
same,decrease of sputum white blood cells from Baseline,[7]; 100 mg acebilustat group,60%
same,decrease of sputum neutrophils,[7]; 100 mg group,65%
same,decrease of sputum neutrophils,[7]; all treated patients (doses of 50 to 100 mg),34%
same,decrease of sputum white blood cells from Baseline,[7]; all treated subjects (doses of 50 or 100 mg),31%
same,reduction in limb volume,[8],6.7%
same,skin thickness of affected limb,"[9]; 3 months after acebilustat treatment vs baseline, caliper",dramatically reduced; also recorded: significant decrease
same,reduction in skin thickness,"[9]; 6 months vs baseline, mean for 10 patients",43%
same,reduction of neutrophil swarming,neutrophil swarming,80%
same,bioimpedance (water content) of affected limb,[10],significantly lower water content; also recorded: significantly higher bioimpedance
